Measurements: patent publication US10189841B2, “Purinones as ubiquitin-specific protease 1 inhibitors” (Forma Therapeutics, Inc., priority 2015, dated 2019)

target: USP1 (construct USP1 (I-785, GG670, 671AA)/UAF1 (I-677)-Flag) (Homo sapiens (Human), UniProt O94782, G670A/G671A); test: Ubiquitin-Rhodamine 110 assay for USP1 activity; format: biochemical; details: USP1/UAF1 25 pM, Ub-Rh110 25 nM, 30 min preincubation
Method in brief: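 Two formats with the USP1/UAF1 complex and 25 nM ubiquitin-rhodamine 110 in pH 8.0 Tris buffer with calcium, glutathione and detergent. Single-point screening used 10 µM, 100 pM enzyme and 45 min. Inhibition was set against no-enzyme and DMSO wells.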

USP1 (construct USP1 (I-785, GG670, 671AA)/UAF1 (I-677)-Flag), sequence (O94782 whole entry G670A/G671A): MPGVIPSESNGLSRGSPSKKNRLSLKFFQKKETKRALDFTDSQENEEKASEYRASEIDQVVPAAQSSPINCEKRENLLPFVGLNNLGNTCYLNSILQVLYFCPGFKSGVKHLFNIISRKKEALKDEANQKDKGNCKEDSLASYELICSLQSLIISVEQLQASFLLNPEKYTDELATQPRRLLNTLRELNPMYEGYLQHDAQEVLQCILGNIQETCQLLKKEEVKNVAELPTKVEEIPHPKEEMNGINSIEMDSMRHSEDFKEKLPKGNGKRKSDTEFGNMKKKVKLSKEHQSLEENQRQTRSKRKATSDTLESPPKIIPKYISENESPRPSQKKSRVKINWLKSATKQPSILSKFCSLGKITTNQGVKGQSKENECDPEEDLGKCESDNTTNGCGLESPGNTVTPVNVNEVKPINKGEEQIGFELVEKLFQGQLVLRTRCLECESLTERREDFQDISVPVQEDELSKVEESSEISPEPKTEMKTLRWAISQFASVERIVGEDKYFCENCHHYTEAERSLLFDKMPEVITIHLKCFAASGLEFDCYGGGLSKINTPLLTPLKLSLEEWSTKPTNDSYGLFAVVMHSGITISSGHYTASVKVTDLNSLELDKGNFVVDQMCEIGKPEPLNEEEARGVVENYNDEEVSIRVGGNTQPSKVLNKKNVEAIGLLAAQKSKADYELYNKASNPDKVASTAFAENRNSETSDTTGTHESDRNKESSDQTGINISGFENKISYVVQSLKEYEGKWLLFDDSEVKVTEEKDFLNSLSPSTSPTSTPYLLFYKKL
USP1 (construct USP1 (I-785, GG670, 671AA)/UAF1 (I-677)-Flag), sequence (Q8TAF3 whole entry partner): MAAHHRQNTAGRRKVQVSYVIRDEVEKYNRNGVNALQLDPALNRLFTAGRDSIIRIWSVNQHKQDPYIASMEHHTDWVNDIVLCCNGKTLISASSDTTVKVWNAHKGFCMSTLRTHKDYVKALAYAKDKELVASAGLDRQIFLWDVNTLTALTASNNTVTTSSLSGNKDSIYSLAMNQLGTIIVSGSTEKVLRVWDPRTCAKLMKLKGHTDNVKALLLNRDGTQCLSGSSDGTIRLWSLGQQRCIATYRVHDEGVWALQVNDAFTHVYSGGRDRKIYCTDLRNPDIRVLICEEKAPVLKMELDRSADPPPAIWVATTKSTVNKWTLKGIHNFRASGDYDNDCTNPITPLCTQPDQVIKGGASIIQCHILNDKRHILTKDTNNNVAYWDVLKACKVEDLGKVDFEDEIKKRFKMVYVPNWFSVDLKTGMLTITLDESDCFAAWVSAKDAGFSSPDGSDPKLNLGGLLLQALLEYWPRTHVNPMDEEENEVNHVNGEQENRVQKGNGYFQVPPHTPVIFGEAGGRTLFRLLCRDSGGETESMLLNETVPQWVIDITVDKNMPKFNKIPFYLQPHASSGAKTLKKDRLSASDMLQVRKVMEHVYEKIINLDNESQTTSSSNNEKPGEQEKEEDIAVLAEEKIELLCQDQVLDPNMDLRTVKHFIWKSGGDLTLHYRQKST

Compound | IC50
CC(C)c1c(F)cccc1-c1ncc2[nH]c(=O)n(Cc3ccc(-n4ncc5c4CNC5)cc3)c2n1 [Compound I-103, 9-(4-(5,6-dihydropyrrolo[3,4-c]pyrazol-1(4H)-yl)benzyl)-2-(3-fluoro-2-isopropylphenyl)-7,9-dihydro-8H-purin-8-one] | 50 to 200 nM
CC(C)c1c(F)cccc1-c1ncc2[nH]c(=O)n(Cc3ccc(-n4cc5c(n4)CNC5)cc3)c2n1 [Compound I-104, 9-(4-(5,6-dihydropyrrolo[3,4-c]pyrazol-2(4H)-yl)benzyl)-2-(3-fluoro-2-isopropylphenyl)-7,9-dihydro-8H-purin-8-one] | 200 to 2000 nM
CC(C)c1ncccc1-c1ncc2c(n1)n(Cc1ccc(-c3nc(C(F)(F)F)cn3C)cc1)c(=O)n2C [Compound I-105, 2-(2-Isopropylpyridin-3-yl)-7-methyl-9-(4-(1-methyl-4-(trifluoromethyl)-1H-imidazol-2-yl)benzyl)-7,9-dihydro-8H-purin-8-one] | < 50 nM
CC(C)c1ccccc1-c1ncc2c(n1)n(Cc1ccc(-c3nc(C(F)(F)F)cn3CCO)cc1)c(=O)n2C [Compound I-106, 9-(4-(1-(2-Hydroxyethyl)-4-(trifluoromethyl)-1H-imidazol-2-yl)benzyl)-2-(2-isopropylphenyl)-7-methyl-7,9-dihydro-8H-purin-8-one] | < 50 nM
CC(C)c1ccccc1-c1ncc2c(n1)n(Cc1ccc(-n3cccn3)cc1)c(=O)n2CCN(C)C [Compound I-107, 9-(4-(1H-pyrazol-1-yl)benzyl)-7-(2-(dimethylamino)ethyl)-2-(2-isopropylphenyl)-7,9-dihydro-8H-purin-8-one] | 200 to 2000 nM
CC(C)c1ncccc1-c1ncc2c(n1)n(C1(c3ccc(-c4nc(C(F)(F)F)cn4C)cc3)CC1)c(=O)n2C [Compound I-108, 2-(2-isopropylpyridin-3-yl)-7-methyl-9-(1-(4-(1-methyl-4-(trifluoromethyl)-1H-imidazol-2-yl)phenyl)cyclopropyl)-7,9-dihydro-8H-purin-8-one] | < 50 nM
Cc1cc(N2CCC2)nn1-c1ccc(Cn2c(=O)n(C)c3cnc(-c4cccnc4C(C)C)nc32)cc1 [Compound I-109, 9-(4-(3-(azetidin-1-yl)-5-methyl-1H-pyrazol-1-yl)benzyl)-2-(2-isopropylpyridin-3-yl)-7-methyl-7,9-dihydro-8H-purin-8-one] | 50 to 200 nM
CC(C)c1ccccc1-c1ncc2c(n1)n(Cc1ccc(-c3nc(C(F)(F)F)cn3C3COC3)cc1)c(=O)n2C [Compound I-110, 2-(2-isopropylphenyl)-7-methyl-9-(4-(1-(oxetan-3-yl)-4-(trifluoromethyl)-1H-imidazol-2-yl)benzyl)-7,9-dihydro-8H-purin-8-one] | < 50 nM
Cc1cc(C)n([C@H]2CC[C@@H](Cn3c(=O)n(C)c4cnc(-c5ccccc5C(C)C)nc43)CC2)n1 [Compound I-111, 9-(((1s,4s)-4-(3,5-dimethyl-1H-pyrazol-1-yl)cyclohexyl)methyl)-2-(2-isopropylphenyl)-7-methyl-7,9-dihydro-8H-purin-8-one] | 50 to 200 nM
Cc1cc(C)n([C@H]2CC[C@H](Cn3c(=O)n(C)c4cnc(-c5ccccc5C(C)C)nc43)CC2)n1 [Compound I-112, 9-(((1r,4r)-4-(3,5-dimethyl-1H-pyrazol-1-yl)cyclohexyl)methyl)-2-(2-isopropylphenyl)-7-methyl-7,9-dihydro-8H-purin-8-one] | > 2000 nM
Cc1cc(C(F)(F)F)nn1-c1ccc(Cn2c(=O)n(C)c3cnc(-c4cccnc4C(C)C)nc32)cc1 [Compound I-113, 2-(2-isopropylpyridin-3-yl)-7-methyl-9-(4-(5-methyl-3-(trifluoromethyl)-1H-pyrazol-1-yl)benzyl)-7,9-dihydro-8H-purin-8-one] | < 50 nM
CC(C)c1ncccc1-c1ncc2c(n1)n(Cc1ccc(-c3nc(C(F)(F)F)cn3C3CC3)cc1)c(=O)n2C [Compound I-114, 9-(4-(1-cyclopropyl-4-(trifluoromethyl)-1H-imidazol-2-yl)benzyl)-2-(2-isopropylpyridin-3-yl)-7-methyl-7,9-dihydro-8H-purin-8-one] | < 50 nM
CC(C)c1ncccc1-c1ncc2c(n1)n([C@H](C)c1ccc(-c3nc(C(F)(F)F)cn3C)cc1)c(=O)n2C [Compound I-115, (R)-2-(2-isopropylpyridin-3-yl)-7-methyl-9-(1-(4-(1-methyl-4-(trifluoromethyl)-1H-imidazol-2-yl)phenyl)ethyl)-7,9-dihydro-8H-purin-8-one] | < 50 nM
CC(C)c1ncccc1-c1ncc2c(n1)n([C@@H](C)c1ccc(-c3nc(C(F)(F)F)cn3C)cc1)c(=O)n2C [Compound I-116, (S)-2-(2-isopropylpyridin-3-yl)-7-methyl-9-(1-(4-(1-methyl-4-(trifluoromethyl)-1H-imidazol-2-yl)phenyl)ethyl)-7,9-dihydro-8H-purin-8-one] | < 50 nM
CC(C)c1ncccc1-c1ncc2c(n1)n(Cc1ccc(-n3nc(C(F)(F)F)cc3N3CCOCC3)cc1)c(=O)n2C [Compound I-117, 2-(2-isopropylpyridin-3-yl)-7-methyl-9-(4-(5-morpholino-3-(trifluoromethyl)-1H-pyrazol-1-yl)benzyl)-7,9-dihydro-8H-purin-8-one] | < 50 nM
COc1cc(C)n(-c2ccc(Cn3c(=O)n(C)c4cnc(-c5cccnc5C(C)C)nc43)cc2)n1 [Compound I-118, 2-(2-isopropylpyridin-3-yl)-9-(4-(3-methoxy-5-methyl-1H-pyrazol-1-yl)benzyl)-7-methyl-7,9-dihydro-8H-purin-8-one] | < 50 nM
CC(C)c1ncccc1-c1ncc2c(n1)n(Cc1ccc(-c3nc(C(F)(F)F)cn3C)cc1)c(=O)n2C1COC1 [Compound I-119, 2-(2-isopropylpyridin-3-yl)-9-(4-(1-methyl-4-(trifluoromethyl)-1H-imidazol-2-yl)benzyl)-7-(oxetan-3-yl)-7,9-dihydro-8H-purin-8-one] | 50 to 200 nM
COCCn1c(=O)n(Cc2ccc(-c3nc(C(F)(F)F)cn3C)cc2)c2nc(-c3cccnc3C(C)C)ncc21 [Compound I-120, 2-(2-isopropylpyridin-3-yl)-7-(2-methoxyethyl)-9-(4-(1-methyl-4-(trifluoromethyl)-1H-imidazol-2-yl)benzyl)-7,9-dihydro-8H-purin-8-one] | < 50 nM
CC(C)c1ncccc1-c1ncc2c(n1)n(Cc1ccc(-c3nc(C(F)(F)F)cn3C)cc1)c(=O)n2C1CS(=O)(=O)C1 [Compound I-121, 7-(1,1-dioxidothietan-3-yl)-2-(2-isopropylpyridin-3-yl)-9-(4-(1-methyl-4-(trifluoromethyl)-1H-imidazol-2-yl)benzyl)-7,9-dihydro-8H-purin-8-one] | 200 to 2000 nM
CC(C)c1ncccc1-c1ncc2c(n1)n(Cc1ccc(-c3nc(C(F)(F)F)cn3C)cc1)c(=O)n2C1CCOCC1 [Compound I-122, 2-(2-isopropylpyridin-3-yl)-9-(4-(1-methyl-4-(trifluoromethyl)-1H-imidazol-2-yl)benzyl)-7-(tetrahydro-2H-pyran-4-yl)-7,9-dihydro-8H-purin-8-one] | 200 to 2000 nM
CC(C)c1ncccc1-c1ncc2c(n1)n(Cc1ccc(-c3nc(C(F)(F)F)cn3C)cc1)c(=O)n2CCO [Compound I-123, 7-(2-hydroxyethyl)-2-(2-isopropylpyridin-3-yl)-9-(4-(1-methyl-4-(trifluoromethyl)-1H-imidazol-2-yl)benzyl)-7,9-dihydro-8H-purin-8-one] | 50 to 200 nM
CC(C)c1ncccc1-c1ncc2c(n1)n(Cc1ccc(-c3nc(C(F)(F)F)cn3C3COC3)cc1)c(=O)n2C [Compound I-124, 2-(2-isopropylpyridin-3-yl)-7-methyl-9-(4-(1-(oxetan-3-yl)-4-(trifluoromethyl)-1H-imidazol-2-yl)benzyl)-7,9-dihydro-8H-purin-8-one] | 50 to 200 nM
CC(C)c1ncccc1-c1ncc2c(n1)n(Cc1cc(F)c(-c3nc(C(F)(F)F)cn3C)c(F)c1)c(=O)n2C [Compound I-125, 9-(3,5-difluoro-4-(1-methyl-4-(trifluoromethyl)-1H-imidazol-2-yl)benzyl)-2-(2-isopropylpyridin-3-yl)-7-methyl-7,9-dihydro-8H-purin-8-one] | 50 to 200 nM
CC(C)c1ncccc1-c1ncc2c(n1)n(Cc1ccc(-c3nc(C(F)(F)F)cn3C)c(F)c1)c(=O)n2C [Compound I-126, 9-(3-fluoro-4-(1-methyl-4-(trifluoromethyl)-1H-imidazol-2-yl)benzyl)-2-(2-isopropylpyridin-3-yl)-7-methyl-7,9-dihydro-8H-purin-8-one] | < 50 nM
CC(C)c1ncccc1-c1ncc2c(n1)n(Cc1ccc(-c3nc(C(F)(F)F)cn3C)cc1F)c(=O)n2C [Compound I-127, 9-(2-fluoro-4-(1-methyl-4-(trifluoromethyl)-1H-imidazol-2-yl)benzyl)-2-(2-isopropylpyridin-3-yl)-7-methyl-7,9-dihydro-8H-purin-8-one] | 50 to 200 nM
CC(C)c1ncccc1-c1ncc2c(n1)n(Cc1c(F)cc(-c3nc(C(F)(F)F)cn3C)cc1F)c(=O)n2C [Compound I-128, 9-(2,6-difluoro-4-(1-methyl-4-(trifluoromethyl)-1H-imidazol-2-yl)benzyl)-2-(2-isopropylpyridin-3-yl)-7-methyl-7,9-dihydro-8H-purin-8-one] | 50 to 200 nM
[2H]C([2H])([2H])n1c(=O)n(Cc2ccc(-c3nc(C(F)(F)F)cn3C)cc2)c2nc(-c3cccnc3C(C)C)ncc21 [Compound I-129, 2-(2-isopropylpyridin-3-yl)-7-(methyl-d3)-9-(4-(1-methyl-4-(trifluoromethyl)-1H-imidazol-2-yl)benzyl)-7,9-dihydro-8H-purin-8-one] | < 50 nM
[2H]C([2H])([2H])n1cc(C(F)(F)F)nc1-c1ccc(Cn2c(=O)n(C([2H])([2H])[2H])c3cnc(-c4cccnc4C(C)C)nc32)cc1 [Compound I-130, 2-(2-isopropylpyridin-3-yl)-7-(methyl-d3)-9-(4-(1-(methyl-d3)-4-(trifluoromethyl)-1H-imidazol-2-yl)benzyl)-7,9-dihydro-8H-purin-8-one] | < 50 nM
